Article PMC6191185 (Cancer cell, 2018)

Molecular target: T1, CARM1 (co-activator associated arginine methyltransferase 1, PRMT4) (Homo sapiens, UniProt Q86X55)
T1 sequence (Q86X55 2-608): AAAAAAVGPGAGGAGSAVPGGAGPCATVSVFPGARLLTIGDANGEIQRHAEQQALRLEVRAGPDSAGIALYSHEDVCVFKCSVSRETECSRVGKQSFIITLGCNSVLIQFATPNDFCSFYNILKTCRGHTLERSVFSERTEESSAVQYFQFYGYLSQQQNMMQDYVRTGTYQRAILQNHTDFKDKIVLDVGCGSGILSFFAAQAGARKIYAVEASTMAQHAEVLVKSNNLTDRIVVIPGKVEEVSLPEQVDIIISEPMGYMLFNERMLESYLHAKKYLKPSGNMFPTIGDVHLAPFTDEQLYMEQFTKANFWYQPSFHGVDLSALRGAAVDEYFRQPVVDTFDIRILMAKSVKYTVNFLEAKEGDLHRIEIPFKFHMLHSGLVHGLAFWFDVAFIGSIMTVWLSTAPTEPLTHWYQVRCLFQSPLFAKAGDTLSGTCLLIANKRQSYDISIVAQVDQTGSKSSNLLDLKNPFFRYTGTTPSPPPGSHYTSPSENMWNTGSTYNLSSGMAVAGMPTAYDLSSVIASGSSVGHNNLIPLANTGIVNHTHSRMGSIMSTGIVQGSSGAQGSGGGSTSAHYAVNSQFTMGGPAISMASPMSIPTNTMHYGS
Assay: cellular CARM1 substrate methylation
Format: cell-based

## CNC[C@@H](O)COc1ccc(Cl)c(-c2nc(-c3c(C)noc3C)c(C)c(N3Cc4cnc(N5CCC5)nc4C3)n2)c1 [EPZ025654]
  IC50: 18 nM
